25 molecules from ChEMBL document CHEMBL1201862, “PubChem BioAssay data set” (2004) can be followed below.

Holding throughout (assay): NCI anticancer screen, dose series, 48 h
The subject of assay [1] is DLD-1.
Assay [2] relates to HOP-18.
The test system of assay [3] is RXF 631.
Assay [4] relates to DMS-114.
The subject of assay [5] is XF498.
Assay [6] concerns LXFL 529.
Assay [7] concerns BT-549.
The test system of assay [8] is MDA-N.
Assay [9] deals with MDA-MB-231.

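Cultured in 96-well plates, cells were exposed to test compound for 48 hours across five concentrations. GI50 is the concentration that inhibits growth by half.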 The source made the active and inactive calls. Rule as the data show it: active = GI50 up to about 1.1 µM and inactive = higher.

`Cn1c(=O)c2c(nc3n2C(CCl)CO3)n(C)c1=O` (stereo unspecified): the GI50 in assay [1], in [2], in assay [3] and in [4] was > 100 µM (inactive) throughout.

On to `C#Cc1ccccc1C(=O)OC`, for which the GI50 was > 100 µM (inactive) in [1], > 100 µM (inactive) in assay [2], > 100 µM (inactive) in [5] and 89.9 µM (inactive) in assay [4].

Consider `O=[N+]([O-])c1ccc(/C=C/c2ccc(/N=N/c3ccc(/C=C/c4ccc([N+](=O)[O-])cc4S(=O)(=O)O)c(S(=O)(=O)O)c3)cc2S(=O)(=O)O)c(S(=O)(=O)O)c1`, for which the GI50 in assay [1] was > 100 µM (inactive); in assay [2], > 74.6 µM (inactive); in assay [5], > 78 µM (inactive); in [4], > 100 µM (inactive).

For `CCC1=C(C[C@H]2NCCc3cc(OC)c(OC)cc32)C[C@H]2c3cc(OC)c(OC)cc3CCN2C1`, the GI50 in assay [1] is 0.0296 µM (active); in assay [2], 0.667 µM (active); in [6], 0.0316 µM (active); in assay [3], 0.0412 µM (active); in assay [4], 0.0166 µM (active).

`CC(C)(C)c1ccc(OCCOCCOc2ccc(C(C)(C)C)cc2S(N)(=O)=O)c(S(N)(=O)=O)c1`: the GI50 is 99.5 µM (inactive) in [1], > 100 µM (inactive) in assay [2], > 100 µM (inactive) in [3] and 16.9 µM (inactive) in assay [4].

As to `Nc1nc2[nH]c(=O)cnc2c(=O)[nH]1` [ISOXANTHOPTERIN], the GI50 in assay [1] is > 125 µM (inactive); in assay [2], > 5.81 µM (inactive); in [5] it was 10.6 µM (inactive); in assay [4] it was > 125 µM (inactive).

As to `CCOC(=O)C1C=C2O[C@@H]3OC4(CCCCC4)O[C@@H]3C2[C@H]2C(=O)C=CC(=O)[C@@]12C(=O)OC` (stereo partly specified), the GI50 in assay [1] was 16.6 µM (inactive); in assay [2], 15.7 µM (inactive); in [6], 10.7 µM (inactive); in [3], 16.3 µM (inactive); in [5], 7.29 µM (inactive); in assay [4] it was 4.75 µM (inactive).

In the case of `Nc1ccc(Cn2ccc3c4c(N)nc(N)nc4ccc32)cc1`, the GI50 in assay [1] was < 0.01 µM (active); in assay [2], 10.2 µM (inactive); in assay [6], 0.0119 µM (active); in assay [7], 0.219 µM (active); in [8], < 0.01 µM (active); in assay [5] it was 1.5 µM (inactive). The results for the GI50 in assay [9] and in assay [4] were 1.06 µM (active) and < 0.01 µM (active), respectively.

On to `CSc1nc2c(ncn2C2OC(CO)C(O)C(O)C2O)c(=O)n1C` (stereo unspecified), for which the GI50 was > 100 µM (inactive) in assay [1], > 88.9 µM (inactive) in [2], > 100 µM (inactive) in [5] and > 100 µM (inactive) in assay [4].

Take `CC12CCCC(C#N)(C1)OC2=O` (stereo unspecified): the GI50 in assay [1], in assay [6], in assay [3] and in assay [5] was > 100 µM (inactive) throughout.

As for `CC(=O)NC1C(OCc2ccccc2)OC(CO)C(O)C1OC(C)C(=O)N[C@@H](C)C(=O)N[C@H](CCC(=O)OCCNc1c2ccccc2nc2cccc([N+](=O)[O-])c12)C(N)=O` (stereo partly specified), the GI50 in [1] was 0.00139 µM (active); in assay [2], 0.000354 µM (active); in assay [6] it was 0.000622 µM (active).

For the molecule `O=CN/C=C/c1ccccc1O`, the GI50 in [1], in assay [2], in [6] and in [4] was > 100 µM (inactive) each time.

With `C/C(CC(=O)Nc1cc(Cl)c(Cl)cc1Cl)=N\NC(N)=O`, the GI50 in [1], in [6], in assay [3], in [5] and in assay [4] was > 100 µM (inactive) throughout.

On to `COC(=O)C1=C(\O)C[C@@]2(C)CC[C@@H](C(=O)OC)C2C/C=C\1C(=O)OC` (stereo partly specified), for which the GI50 was > 100 µM (inactive) in [1]; > 100 µM (inactive) in [2]; 62.2 µM (inactive) in assay [6]; > 100 µM (inactive) in assay [3]; 29.4 µM (inactive) in assay [4].

For the molecule `CNC(=S)N(C)C(=S)Nn1c(=O)c(C)nn(C)c1=S`, the GI50 in [1], in [2], in assay [6] and in [4] was > 100 µM (inactive) throughout.

With `Cc1ccc(NC(=O)SCCC(=O)O)cc1`, the GI50 in [1], in assay [6], in [3] and in [4] was > 100 µM (inactive) in each case.

With `O=NN1C(c2ccccc2)C2CCCC(C2=O)C1c1ccccc1` (stereo unspecified), the GI50 in assay [1] is 43.3 µM (inactive); in [2], 8.73 µM (inactive); in assay [5], 13.6 µM (inactive); in assay [4] it was 32.5 µM (inactive).

In the case of `CC1CCC2(CC1)NN=c1s/c(=C\c3ccc(O)cc3)c(=O)n1N2` (stereo unspecified), the GI50 in assay [1], in assay [2], in assay [6], in assay [5] and in assay [4] was > 100 µM (inactive) throughout.

Take `O=C(c1ccccc1)c1nnn(Cc2cccc(Cl)c2)c1C(=O)c1ccccc1`: the GI50 in assay [1] was > 100 µM (inactive); in assay [2] it was > 100 µM (inactive); in [6] it was 97.5 µM (inactive); in assay [5] it was > 100 µM (inactive); in assay [4] it was 78 µM (inactive).

For `O=[N+]([O-])c1ccc(-c2ccc(-c3csc(Nc4ccccn4)n3)o2)cc1`, the GI50 in assay [1] is > 100 µM (inactive); in [6], 25.1 µM (inactive); in [3], 35.4 µM (inactive); in assay [5] it was 22.7 µM (inactive).

For the molecule `CC(=O)NNc1nc(C)c(C(=O)/C=C/c2cccc([N+](=O)[O-])c2)s1`, the GI50 in assay [1], in assay [2], in assay [6], in assay [3] and in [4] was > 100 µM (inactive) each time.

For the molecule `CCSC(=O)N1c2ccc(OC)cc2C=CC1C#N` (stereo unspecified), the GI50 in assay [1] was < 0.01 µM (active); in assay [6] it was < 0.01 µM (active); in assay [7], < 0.01 µM (active); in assay [8], 0.00306 µM (active); in [5], < 0.01 µM (active); in [9] it was 0.00589 µM (active). Further, the GI50 in [4] was < 0.01 µM (active).

For the molecule `COC(=O)c1c(-c2ccccc2)cc2c3cc(-c4ccccc4)c(C(=O)OC)n3c3ccccc3n12`, the GI50 in [1], in assay [2], in assay [6], in assay [3], in assay [5] and in [4] was > 100 µM (inactive) throughout.

For `CCOC(=O)NC(=O)c1cn(CCCCCCOC(=O)NCCCCCCNC(=O)OCCCCCCn2cc(C(=O)NC(=O)OCC)c(=O)[nH]c2=O)c(=O)[nH]c1=O`, the GI50 in assay [1] is > 100 µM (inactive); in [2] it was > 100 µM (inactive); in assay [6] it was > 100 µM (inactive); in assay [3], > 100 µM (inactive); in assay [4], 67.9 µM (inactive).

With `O=C(Nc1ccn(CCOC(=O)c2ccccc2)c(=O)n1)c1ccccc1`, the GI50 in [2], in assay [6] and in assay [4] was > 100 µM (inactive) each time.
